Results from ChEMBL document CHEMBL6103541, “Ringing medicinal chemistry: The importance of 3-membered rings in drug discovery” (Bioorg Med Chem, 2024).
In brackets after ≈: the same amount, converted by molar mass. *1 amine or outer side, *2 acyl side, *3 side chain or, on linkers, in order; H or OH if unused. Where a SMILES comes first, the peptide text is derived from it. [ ]: non-standard residue; d: D form. The star is where a group is joined. X1 = CCCC(N[*:1])C(=O)C(=O)[*:2]; Chg = N[C@H](C(=O)O)C1CCCCC1; Phg = N[C@H](C(=O)O)c1ccccc1; Boc = CC(C)(C)OC(=O)*

How the values were obtained:
NS3 protease [1] = biological target: T1, NS3 protease (Hepacivirus C, UniProt C1KIQ2); assay: Binding affinity to HCV NS3 protease assessed as inhibition constant; set-up: species or system Hepacivirus hominis
T1 sequence (C1KIQ2 whole entry): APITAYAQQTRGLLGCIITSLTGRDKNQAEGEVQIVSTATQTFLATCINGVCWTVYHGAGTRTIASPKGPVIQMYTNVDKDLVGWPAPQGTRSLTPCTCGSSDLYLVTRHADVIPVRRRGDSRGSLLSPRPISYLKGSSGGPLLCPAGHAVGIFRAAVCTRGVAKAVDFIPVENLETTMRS

[2] = biological target: Human immunodeficiency virus type 1 reverse transcriptase (Human immunodeficiency virus 1, UniProt Q72547); assay: Inhibition of HIV-1 reverse transcriptase
NS3 protease [3] = biological target: T1, NS3 protease; assay: Inhibition of Hepatitis C virus genotype 1b NS3 protease; set-up: species or system Hepacivirus hominis
NS3 protease [4] = biological target: T1, NS3 protease; assay: Binding affinity to Hepatitis C virus genotype 1a NS3 protease assessed as inhibition constant; set-up: species or system Hepacivirus hominis
NS3 protease [5] = biological target: T1, NS3 protease; assay: Binding affinity to Hepatitis C virus genotype 1b NS3 protease assessed as inhibition constant; set-up: species or system Hepacivirus hominis
SK-BR-3 = assay: Antiproliferative activity against human SK-BR-3 cells; type: functional, cell-based
Staphylococcus aureus [6] = assay: In vivo antibacterial activity against Staphylococcus aureus infected mouse model assessed as curative dose; type: functional
Staphylococcus aureus [7] = assay: In vivo antibacterial activity against streptomycin-resistant Staphylococcus aureus infected mouse model assessed as curative dose; type: functional
Staphylococcus aureus [8] = assay: In vivo antibacterial activity against erythromycin-resistant Staphylococcus aureus infected mouse model assessed as curative dose; type: functional
HPAC = assay: Antiproliferative activity against human HPAC cells assessed as inhibition of cell growth measured after 72 hrs by MTT assay; type: functional, cell-based
Capan-2 = assay: Antiproliferative activity against human Capan-2 cells assessed as reduction in cell viability incubated for 72 hrs by MTT assay; type: functional, cell-based; details: Capan-2, 72 h
Hepatitis C virus = assay: Antiviral activity against Hepatitis C virus infected in human Huh7.5 cells assessed as reduction in viral replication; type: functional, Hepacivirus hominis
[9] = Half life in Wistar rat at 10 mg/kg, iv measured for 24 hrs by LC-MS/MS analysis; type: ADME, organism-based; details: in vivo
[10] = Volume of distribution at steady state in Wistar rat at 10 mg/kg, iv measured for 24 hrs by LC-MS/MS analysis; type: ADME, organism-based; details: in vivo
BT-549 = assay: Cytotoxicity against human BT-549 cells assessed as inhibition of cell growth incubated for 72 hrs by MTT assay; type: functional, cell-based; details: BT-549, 72 h
MDA-MB-231 = assay: Antiproliferative activity against human MDA-MB-231 cells assessed as reduction in cell viability incubated for 72 hrs by MTT assay; type: functional, cell-based; details: MDA-MB-231, 72 h
[11] = Inhibition of 20s constitutive proteasome beta-5c (unknown origin); set-up: species or system Homo sapiens
[12] = test system: Staphylococcus epidermidis; assay: microbe, parasite or virus in culture
Description: Antibacterial activity against Staphylococcus epidermidis

[13] = test system: Staphylococcus saprophyticus; assay: microbe, parasite or virus in culture
Description: Antibacterial activity against Staphylococcus saprophyticus

Staphylococcus aureus [14] = assay: microbe, parasite or virus in culture
Description: Antibacterial activity against Methicillin-resistant staphylococcus aureus

MCF7 = assay: Antiproliferative activity against human MCF7 cells assessed as reduction in cell viability incubated for 48 hrs by MTT assay; type: functional, cell-based; details: MCF7, 48 h
SK-N-FI = assay: Antiproliferative activity against human SK-N-FI cells; type: functional, cell-based
[15] = biological target: Vascular endothelial growth factor receptor 1 (Homo sapiens, UniProt P17948); assay: Inhibition of VEGFR1 (unknown origin)
[16] = biological target: Vascular endothelial growth factor receptor 3 (Homo sapiens, UniProt P35916); assay: Inhibition of VEGFR3 (unknown origin)
Chain of Vascular endothelial growth factor receptor 3 (P35916 whole entry): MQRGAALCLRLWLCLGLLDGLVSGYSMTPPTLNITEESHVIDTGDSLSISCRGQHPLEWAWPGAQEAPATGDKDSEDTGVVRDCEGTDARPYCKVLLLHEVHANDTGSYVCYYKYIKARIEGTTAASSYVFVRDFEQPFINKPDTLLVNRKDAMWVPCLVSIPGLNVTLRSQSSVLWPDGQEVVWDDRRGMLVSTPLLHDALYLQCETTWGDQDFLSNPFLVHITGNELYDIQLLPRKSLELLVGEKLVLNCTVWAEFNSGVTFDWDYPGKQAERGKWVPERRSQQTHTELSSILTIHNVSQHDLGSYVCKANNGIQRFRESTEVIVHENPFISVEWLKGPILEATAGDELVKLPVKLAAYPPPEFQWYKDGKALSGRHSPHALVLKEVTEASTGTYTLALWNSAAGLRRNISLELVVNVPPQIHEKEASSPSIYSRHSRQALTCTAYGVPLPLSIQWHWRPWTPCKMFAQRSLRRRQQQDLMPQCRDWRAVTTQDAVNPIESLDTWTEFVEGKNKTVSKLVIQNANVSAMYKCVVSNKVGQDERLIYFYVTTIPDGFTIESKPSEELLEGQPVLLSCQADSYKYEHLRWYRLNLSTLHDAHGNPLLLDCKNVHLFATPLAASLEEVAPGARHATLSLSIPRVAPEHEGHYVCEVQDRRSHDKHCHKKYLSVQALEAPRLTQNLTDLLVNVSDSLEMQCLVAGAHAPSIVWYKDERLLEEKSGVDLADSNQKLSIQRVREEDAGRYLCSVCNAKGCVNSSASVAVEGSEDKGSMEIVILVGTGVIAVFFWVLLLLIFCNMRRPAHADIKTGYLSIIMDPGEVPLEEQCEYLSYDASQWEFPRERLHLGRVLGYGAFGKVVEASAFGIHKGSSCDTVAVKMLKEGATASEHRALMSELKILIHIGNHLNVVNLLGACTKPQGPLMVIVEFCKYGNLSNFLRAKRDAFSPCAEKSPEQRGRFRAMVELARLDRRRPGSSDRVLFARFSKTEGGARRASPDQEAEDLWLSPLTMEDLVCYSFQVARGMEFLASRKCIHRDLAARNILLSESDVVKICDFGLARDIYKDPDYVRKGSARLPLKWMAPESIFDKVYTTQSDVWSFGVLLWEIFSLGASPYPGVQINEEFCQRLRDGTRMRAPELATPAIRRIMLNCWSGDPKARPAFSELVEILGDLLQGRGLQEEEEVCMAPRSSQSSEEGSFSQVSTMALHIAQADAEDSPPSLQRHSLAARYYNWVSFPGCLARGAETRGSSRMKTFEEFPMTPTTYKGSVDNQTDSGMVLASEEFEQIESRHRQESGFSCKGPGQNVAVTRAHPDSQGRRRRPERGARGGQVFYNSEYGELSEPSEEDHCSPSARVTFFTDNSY

[17] = biological target: Fibroblast growth factor receptor 1 (Homo sapiens, UniProt P11362); assay: Inhibition of FGFR1 (unknown origin)
Chain of Fibroblast growth factor receptor 1 (P11362 whole entry): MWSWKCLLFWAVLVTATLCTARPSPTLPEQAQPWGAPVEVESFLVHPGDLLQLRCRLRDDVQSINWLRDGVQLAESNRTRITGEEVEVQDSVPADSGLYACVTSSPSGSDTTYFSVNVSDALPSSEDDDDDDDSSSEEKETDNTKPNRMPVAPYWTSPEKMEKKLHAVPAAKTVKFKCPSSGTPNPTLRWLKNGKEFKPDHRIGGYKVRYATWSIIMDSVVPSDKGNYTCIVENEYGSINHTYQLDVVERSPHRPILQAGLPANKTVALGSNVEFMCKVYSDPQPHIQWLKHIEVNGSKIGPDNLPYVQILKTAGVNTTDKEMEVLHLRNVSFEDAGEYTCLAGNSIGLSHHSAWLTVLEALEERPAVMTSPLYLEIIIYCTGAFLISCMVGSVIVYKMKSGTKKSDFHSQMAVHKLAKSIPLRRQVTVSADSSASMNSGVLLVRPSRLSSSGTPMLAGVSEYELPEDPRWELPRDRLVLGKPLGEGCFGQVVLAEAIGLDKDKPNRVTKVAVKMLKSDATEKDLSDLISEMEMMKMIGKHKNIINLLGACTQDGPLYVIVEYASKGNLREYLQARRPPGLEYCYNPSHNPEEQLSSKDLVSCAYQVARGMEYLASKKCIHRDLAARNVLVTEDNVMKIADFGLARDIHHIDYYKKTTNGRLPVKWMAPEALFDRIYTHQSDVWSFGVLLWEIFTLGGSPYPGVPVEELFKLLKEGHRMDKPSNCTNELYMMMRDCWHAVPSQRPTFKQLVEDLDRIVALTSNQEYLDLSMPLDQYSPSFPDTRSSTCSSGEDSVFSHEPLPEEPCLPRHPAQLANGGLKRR

[18] = biological target: Fibroblast growth factor receptor 3 (Homo sapiens, UniProt P22607); assay: Inhibition of FGFR3 (unknown origin)
Chain of Fibroblast growth factor receptor 3 (P22607 whole entry): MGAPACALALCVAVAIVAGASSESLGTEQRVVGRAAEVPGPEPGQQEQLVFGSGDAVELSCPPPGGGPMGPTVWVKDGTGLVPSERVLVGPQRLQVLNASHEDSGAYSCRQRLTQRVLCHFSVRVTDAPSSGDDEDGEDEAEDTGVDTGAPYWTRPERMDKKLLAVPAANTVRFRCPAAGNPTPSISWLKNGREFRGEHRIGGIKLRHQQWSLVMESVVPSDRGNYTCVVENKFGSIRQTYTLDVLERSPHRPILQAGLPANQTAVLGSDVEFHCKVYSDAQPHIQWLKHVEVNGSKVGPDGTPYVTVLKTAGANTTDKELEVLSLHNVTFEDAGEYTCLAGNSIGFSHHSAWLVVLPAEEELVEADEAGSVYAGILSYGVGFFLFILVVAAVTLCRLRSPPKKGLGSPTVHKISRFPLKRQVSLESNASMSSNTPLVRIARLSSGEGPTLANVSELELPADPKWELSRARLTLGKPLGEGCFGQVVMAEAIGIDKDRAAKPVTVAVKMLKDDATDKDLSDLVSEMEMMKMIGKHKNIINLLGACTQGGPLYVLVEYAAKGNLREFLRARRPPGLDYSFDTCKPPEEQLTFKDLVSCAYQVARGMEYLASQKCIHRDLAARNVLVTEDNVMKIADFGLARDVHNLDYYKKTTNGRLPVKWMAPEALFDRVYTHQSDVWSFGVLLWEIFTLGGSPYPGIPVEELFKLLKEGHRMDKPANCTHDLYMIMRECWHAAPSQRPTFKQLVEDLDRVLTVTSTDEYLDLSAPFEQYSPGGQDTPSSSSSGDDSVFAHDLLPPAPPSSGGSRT

[19] = biological target: Fibroblast growth factor receptor 4 (Homo sapiens, UniProt P22455); assay: Inhibition of FGFR4 (unknown origin)
Chain of Fibroblast growth factor receptor 4 (P22455 whole entry): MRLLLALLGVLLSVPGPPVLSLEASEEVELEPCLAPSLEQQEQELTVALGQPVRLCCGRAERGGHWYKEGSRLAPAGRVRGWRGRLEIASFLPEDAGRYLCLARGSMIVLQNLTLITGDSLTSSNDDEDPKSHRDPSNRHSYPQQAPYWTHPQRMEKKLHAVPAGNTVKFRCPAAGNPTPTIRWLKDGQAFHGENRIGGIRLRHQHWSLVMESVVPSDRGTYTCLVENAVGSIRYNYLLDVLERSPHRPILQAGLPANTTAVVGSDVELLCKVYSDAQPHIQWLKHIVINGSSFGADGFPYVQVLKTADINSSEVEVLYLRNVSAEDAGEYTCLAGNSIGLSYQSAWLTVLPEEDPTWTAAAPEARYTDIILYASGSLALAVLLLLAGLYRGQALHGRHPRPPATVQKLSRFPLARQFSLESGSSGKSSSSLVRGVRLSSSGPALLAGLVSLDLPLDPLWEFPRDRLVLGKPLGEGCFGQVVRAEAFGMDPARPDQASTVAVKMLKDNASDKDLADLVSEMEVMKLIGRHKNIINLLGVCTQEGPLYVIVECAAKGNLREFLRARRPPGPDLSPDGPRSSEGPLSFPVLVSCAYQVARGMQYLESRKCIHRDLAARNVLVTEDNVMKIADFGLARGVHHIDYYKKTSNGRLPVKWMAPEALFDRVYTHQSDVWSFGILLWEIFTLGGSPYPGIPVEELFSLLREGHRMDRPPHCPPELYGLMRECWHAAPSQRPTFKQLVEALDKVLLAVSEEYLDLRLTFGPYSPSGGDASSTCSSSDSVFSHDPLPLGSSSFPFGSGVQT

[20] = Inhibition of PDGFR (unknown origin); set-up: species or system Homo sapiens
SCaBER = assay: Antiproliferative activity against human SCaBER cells; type: functional, cell-based
J82 = assay: Antiproliferative activity against human J82 cells; type: functional, cell-based
[21] = Inhibition of PK1 (unknown origin); set-up: species or system Homo sapiens
Staphylococcus aureus [22] = assay: Antibacterial activity against Staphylococcus aureus; type: functional
Thermus thermophilus = assay: Antibacterial activity against Thermus thermophilus; type: functional, organism-based
Staphylococcus aureus [23] = assay: Antibacterial activity against Staphylococcus aureus ATCC 25923 assessed as bacterial growth inhibition measured after 18 hrs by CLSI protocol based two-fold serial microdilution method; type: functional
Streptococcus pneumoniae = assay: Antibacterial activity against Streptococcus pneumoniae ATCC 49619 assessed as inhibition of bacterial growth incubated for 24 hrs by CLSI protocol based broth micro-dilution method; type: functional
Pseudomonas aeruginosa = assay: Antibacterial activity against Pseudomonas aeruginosa ATCC 15442 assessed as reduction in bacterial cell growth incubated for 18 hrs by two fold serial microdilution method; type: functional
Escherichia coli = assay: Antibacterial activity against Escherichia coli assessed as reduction in bacterial growth by broth microdilution method; type: functional
Tubulin = assay: Inhibition of tubulin polymerization (unknown origin); type: protein-complex assay, Homo sapiens
[24] = Inhibition of LPS-induced NFkappaB activation in mouse RAW264.7 cells assessed as inhibition of IKKalpha phosphorylation level incubated for 1 hrs by Western blot analysis; type: cell-based; details: RAW264.7, 1 h

## CCN1c2ncccc2C(=O)Nc2c(C)ccnc21
NS3 protease [1]
  Ki: 0.01 µM
[2]
  IC50: 0.03 µM

## COc1ccc2c(O[C@@H]3C[C@H]4C(=O)N[C@]5(C(=O)NS(=O)(=O)C6CC6)C[C@H]5/C=C\CCCCN(C)C(=O)[C@@H]4C3)cc(-c3nc(C(C)C)cs3)nc2c1C
NS3 protease [3]
  IC50: 0.008 µM
NS3 protease [4]
  Ki: 0.0005 µM
NS3 protease [5]
  Ki: 0.0004 µM

## COc1cc2cc(c1Cl)N(C)C(=O)C[C@H](OC(=O)[C@@H](C)N(C)C(=O)CCS)[C@]1(C)O[C@H]1[C@H](C)[C@@H]1C[C@@](O)(NC(=O)O1)[C@H](OC)/C=C/C=C(\C)C2
SK-BR-3
  IC50: 0.0011 µM

## CC(C)[C@H](N)C(=O)N[C@H](C(=O)O)[C@@H]1C[C@H](NC(=N)N)[C@@H]2CN21 (some centres not stated)
Staphylococcus aureus [6]
  CD50: 7.6 mg/kg
Staphylococcus aureus [7]
  CD50: 10 mg/kg
Staphylococcus aureus [8]
  CD50: 11 mg/kg

## CCn1c(-c2cc(N3CCN(C)CC3)cnc2[C@H](C)OC)c2c3cc(ccc31)-c1csc(n1)C[C@H](NC(=O)[C@H]1C[C@@H]1C)C(=O)N1CCC[C@H](N1)C(=O)OCC(C)(C)C2
HPAC
  IC50: 0.0012 µM
Capan-2
  IC50: 0.0014 µM

## COc1ccc2c(O[C@@H]3C[C@H]4C(=O)N[C@]5(C(=O)O)C[C@H]5/C=C/CCCCC[C@H](NC(=O)OC5CCCC5)C(=O)N4C3)cc(-c3csc(NC(C)C)n3)cc2c1
NS3 protease [3]
  IC50: 0.003 µM
NS3 protease [4]
  Ki: 0.0003 µM
NS3 protease [5]
  Ki: 0.003 µM

## CCCC(NC(=O)[C@H](CC(C)C)NC(=O)[C@@H](NC(=O)OC(C)(C)C)C1CCCCC1)C(=O)C(=O)NCC(=O)N[C@H](C(N)=O)c1ccccc1 (some centres not stated) (Boc-[Chg]L[X1]G[Phg]-NH2)
NS3 protease [1]
  Ki: 0.066 µM
Hepatitis C virus
  EC90: 0.2 µM

## CC[C@@H]1C(=O)N(C)c2cnc(Nc3ccc(C(=O)NC4CCN(C)CC4)cc3OC)nc2N1C1CCCC1 [BI-2536]
[9]
  half-life: < 50 h
[10]
  Vd: 750 L

## CC(C)(C)NC(=O)N[C@H](C(=O)N1C[C@H]2[C@@H]([C@H]1C(=O)NC(CC1CCC1)C(=O)C(N)=O)C2(C)C)C(C)(C)C (some centres not stated) [BOCEPREVIR]
NS3 protease [1]
  Ki: 0.014 µM
Hepatitis C virus
  EC90: 0.35 µM

## CC(C)C[C@H](NC(=O)[C@H](CCc1ccccc1)NC(=O)CN1CCOCC1)C(=O)N[C@@H](Cc1ccccc1)C(=O)N[C@@H](CC(C)C)C(=O)[C@@]1(C)CO1 [CARFILZOMIB]
BT-549
  IC50: 0.0108 µM
MDA-MB-231
  IC50: 0.0224 µM
[11]
  IC50: 0.006 µM

## O=C(O)c1cn(C2CC2)c2cc(N3CCNCC3)c(F)cc2c1=O [CIPROFLOXACIN]
[12]
  MIC: < 1 µg/mL
[13]
  MIC: < 1 µg/mL
Staphylococcus aureus [14]
  MIC: 0.12 µg/mL (≈ 0.362 µM)

## C[C@]12C[C@H]3S[C@H]3C[C@@H]1CC[C@@H]1[C@@H]2CC[C@]2(C)[C@@H](O)CC[C@@H]12 [EPITIOSTANOL]
MCF7
  IC50: 0.03 µM

## C/C1=C/C[C@@H](/C(C)=C/c2csc(C)n2)OC(=O)C[C@H](O)C(C)(C)C(=O)[C@H](C)[C@@H](O)[C@@H](C)CCC1 [EPOTHILONE D]
SK-N-FI
  IC50: 0.046 µM

## C/C(=C\c1csc(C)n1)[C@@H]1C[C@@H]2O[C@]2(C)CCC[C@H](C)[C@H](O)[C@@H](C)C(=O)C(C)(C)[C@@H](O)CC(=O)N1 [IXABEPILONE]
SK-N-FI
  IC50: 0.01 µM

## COc1cc2nccc(Oc3ccc(NC(=O)NC4CC4)c(Cl)c3)c2cc1C(N)=O [LENVATINIB]
[15]
  IC50: 0.002 µM
[16]
  IC50: 0.002 µM
[17]
  IC50: 0.027 µM
[18]
  IC50: 0.027 µM
[19]
  IC50: 0.027 µM
[20]
  IC50: 0.029 µM

## CO[C@@]12[C@H](COC(N)=O)C3=C(C(=O)C(C)=C(N)C3=O)N1C[C@@H]1N[C@@H]12 [MITOMYCIN]
SCaBER
  IC50: 1.5 µM
J82
  IC50: 0.3 µM
[21]
  IC50: 0.287 µM

## C/C(=C\C(=O)OCCCCCCCCC(=O)O)C[C@@H]1OC[C@H](C[C@@H]2O[C@H]2[C@@H](C)[C@H](C)O)[C@@H](O)[C@H]1O [MUPIROCIN]
Staphylococcus aureus [22]
  MIC: 0.1 µg/mL (≈ 0.2 µM)
Thermus thermophilus
  IC50: 0.9 µM

## CCn1cc(C(=O)O)c(=O)c2cc(F)c(N3CCNCC3)cc21 [NORFLOXACIN]
Staphylococcus aureus [23]
  MIC: ≤ 0.06 µg/mL
Streptococcus pneumoniae
  MIC: ≤ 0.06 µg/mL
Pseudomonas aeruginosa
  MIC: ≤ 0.06 µg/mL
Escherichia coli
  MIC: ≤ 0.06 µg/mL

## COC[C@H](NC(=O)c1cnc(C)s1)C(=O)N[C@@H](COC)C(=O)N[C@@H](Cc1ccccc1)C(=O)[C@@]1(C)CO1 [OPROZOMIB]
BT-549
  IC50: 0.05 µM
MDA-MB-231
  IC50: 0.079 µM
[11]
  IC50: 0.036 µM

## C/C(=C\c1csc(C)n1)[C@@H]1C[C@@H]2O[C@]2(C)CCC[C@H](C)[C@H](O)[C@@H](C)C(=O)C(C)(C)[C@@H](O)CC(=O)O1 [PATUPILONE]
Tubulin
  IC50: 0.0018 µM
SK-N-FI
  IC50: 0.01 µM

## CC[C@@H]1C(=O)N(C)c2cnc(Nc3ccc(C(=O)N[C@H]4CC[C@H](N5CCN(CC6CC6)CC5)CC4)cc3OC)nc2N1C(C)C [VOLASERTIB]
[9]
  half-life: > 110 h
[10]
  Vd: > 4000 L

## CC1=C(CO)C(=O)O[C@@H]([C@@H](C)[C@H]2CC[C@H]3[C@@H]4C[C@H]5O[C@]56[C@@H](O)C=CC(=O)[C@]6(C)[C@H]4CC[C@]23C)C1 [WITHAFERIN A]
[24]
  IC50: 0.25 µM
